From PubChem BioAssay AID200 (DTP/NCI, 2004)
Several values for one entry are separate records, joined by “and”; a condition that tells them apart may be missing. Equal entries are not always repeated. Toxic doses and inconclusive results are not listed. Rule for the calls: active = survival T/C of 150% or more; inactive = T/C below 125% in these data. Where a SMILES comes first, the peptide text is derived from it.

System: B6C3F1 mice, B16 melanoma ip, median survival T/C
Assay: NCI In Vivo Anticancer Drug Screen. Data for tumor model B16 Melanoma (intraperitoneal) in B6C3F1 mice
Conditions: endpoint: median survival time, schedule: Q01DX009 (ip), higher = longer survival
How it was run: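 Antitumor effect was judged in mice with transplanted tumors by dividing the treated group's survival measure by that of vehicle controls.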

[1] = dose: 12.5 mg/kg/injection, vehicle: saline with Tween-80
[2] = dose: 25.0 mg/kg/injection, vehicle: saline with Tween-80
[3] = dose: 50.0 mg/kg/injection, vehicle: saline with Tween-80
[4] = dose: 100.0 mg/kg/injection, vehicle: saline with Tween-80
[5] = dose: 100.0 mg/kg/injection, vehicle: saline
[6] = dose: 200.0 mg/kg/injection, vehicle: saline
[7] = dose: 400.0 mg/kg/injection, vehicle: saline
[8] = dose: 1.56 mg/kg/injection, vehicle: Klucel (hydroxypropylcellulose) (HPC)
[9] = dose: 3.12 mg/kg/injection, vehicle: Klucel (hydroxypropylcellulose) (HPC)
[10] = dose: 100.0 mg/kg/injection, vehicle: Klucel (hydroxypropylcellulose) (HPC)
[11] = dose: 200.0 mg/kg/injection, vehicle: Klucel (hydroxypropylcellulose) (HPC)
[12] = dose: 200.0 mg/kg/injection, vehicle: saline with Tween-80
[13] = dose: 400.0 mg/kg/injection, vehicle: saline with Tween-80
[14] = dose: 50.0 mg/kg/injection, vehicle: Klucel (hydroxypropylcellulose) (HPC)
[15] = dose: 1.25 mg/kg/injection, vehicle: saline with Tween-80
[16] = dose: 2.5 mg/kg/injection, vehicle: saline with Tween-80
[17] = dose: 5.0 mg/kg/injection, vehicle: saline with Tween-80
[18] = dose: 10.0 mg/kg/injection, vehicle: saline with Tween-80
[19] = dose: 3.12 mg/kg/injection, vehicle: saline
[20] = dose: 6.25 mg/kg/injection, vehicle: saline
[21] = dose: 12.5 mg/kg/injection, vehicle: saline
[22] = dose: 25.0 mg/kg/injection, vehicle: saline
[23] = dose: 6.25 mg/kg/injection, vehicle: saline with Tween-80

Measured: T/C

O=[N+]([O-])c1ccc(N2CCOCC2)c2c1no[n+]2[O-]
inactive: [1] 99 % of control | [2] 101 % of control | [3] 98 % of control | [4] 104 % of control

NC(N)=NCCCC(N)C(=O)NCC(=O)NCC(=O)O (configuration not stated) (HELM PEPTIDE1{[N=C(N)NCCCC(N)C(=O)[*:2]].G.G}$$$$V2.0)
inactive: [5] 107 % of control | [6] 102 % of control | [7] 111 % of control

N#C[Se-].c1ccc([Te+](c2ccccc2)c2ccccc2)cc1
inactive: [8] 92 % of control | [9] 97 % of control | dose: 6.25 mg/kg/injection, vehicle: Klucel (hydroxypropylcellulose) (HPC) 96 % of control | dose: 12.5 mg/kg/injection, vehicle: Klucel (hydroxypropylcellulose) (HPC) 96 % of control

COc1cc(C2c3cc4c(cc3C(O)C(CO)C2CO)OCO4)cc(OC)c1OC (configuration not stated)
inactive: [1] 111 % of control and 113 % of control | [2] 113 % of control

NC(CSCc1ccccc1)C(=O)Nc1ccc([N+](=O)[O-])cc1 (configuration not stated)
inactive: [10] 115 % of control | [11] 111 % of control | dose: 400.0 mg/kg/injection, vehicle: Klucel (hydroxypropylcellulose) (HPC) 116 % of control

CC(SC(C)C(=O)N/N=C/c1ccc(C#N)cc1)C(=O)N/N=C\c1ccc(C#N)cc1 (configuration not stated)
inactive: [3] 92 % of control | [4] 88 % of control | [12] 87 % of control | [6] 88 % of control

N#CCCSC(=S)C1CCCC1=N (configuration not stated)
inactive: [1] 103 % of control | [2] 106 % of control | [3] 98 % of control | [4] 106 % of control | [12] 103 % of control | [13] 104 % of control

O=C(O)C(Cc1ccc(O)cc1)NS(=O)(=O)Cc1ccccc1 (configuration not stated)
inactive: [4] 106 % of control | [12] 101 % of control | [13] 100 % of control

Nc1ccc(OC(=O)Oc2ccc(N)cc2)cc1
inactive: [5] 113 % of control | [6] 104 % of control | [7] 98 % of control

CNC(=O)OCc1c(COC(=O)NC)c(C)n(-c2ccc(OC)cc2)c1C
inactive: [9] 112 % of control | [14] 111 % of control

O=C/C(Cl)=C(/Cl)C(=O)O
inactive: [15] 99 % of control | [16] 86 % of control | [17] 89 % of control | [18] 92 % of control | dose: 20.0 mg/kg/injection, vehicle: saline with Tween-80 102 % of control

COC1/C=C/O[C@@]2(C)Oc3c(C)c(O)c4c(O)c(cc(O)c4c3C2=O)NC(=O)/C(C)=C\C=C\[C@H](C)C(O)[C@@H](C)[C@@H](O)[C@@H](C)[C@H](OC(C)=O)[C@@H]1C (some centres not stated)
inactive: [1] 95 % of control | [2] 97 % of control | [3] 93 % of control | [4] 95 % of control

CN(C)CCN1C(=O)c2cccc3cc([N+](=O)[O-])cc(c23)C1=O
inactive: dose: 0.37 mg/kg/injection, vehicle: saline with Tween-80 105 % of control | dose: 0.75 mg/kg/injection, vehicle: saline with Tween-80 107 % of control | dose: 1.5 mg/kg/injection, vehicle: saline with Tween-80 112 % of control | dose: 1.56 mg/kg/injection, vehicle: saline with Tween-80 117 % of control | dose: 3.0 mg/kg/injection, vehicle: saline with Tween-80 102 % of control | dose: 12.0 mg/kg/injection, vehicle: saline with Tween-80 88 % of control

CC[N](CC)[Ge]([CH2]C)[CH2]C.CC[N](CC)[Ge]([CH2]C)[CH2]C
inactive: dose: 1.56 mg/kg/injection, vehicle: saline 106 % of control | [19] 103 % of control | [20] 103 % of control | [21] 107 % of control | [22] 108 % of control

N#CC(=C1C=CC(=NO)C=C1)c1ccc(Cl)cc1
inactive: [23] 101 % of control | [1] 105 % of control | [2] 99 % of control | [3] 99 % of control | [4] 98 % of control | [12] 97 % of control

CCc1nc(N)nc(N)c1-c1ccc(Cl)c(Cl)c1.[Cl][Pd][Cl]
inactive: [19] 114 % of control

CCOC(=O)N1CCN(CCCCCOc2ccc(CC(C)(C)C)cc2Cl)CC1
inactive: dose: 3.13 mg/kg/injection, vehicle: saline 109 % of control | [20] 121 % of control | [21] 112 % of control | [22] 101 % of control

CSc1cc(=O)n2c3ccccc3c3ccnc1c32
inactive: dose: 0.62 mg/kg/injection, vehicle: saline with Tween-80 96 % of control | [15] 101 % of control | [16] 105 % of control | [17] 109 % of control | [18] 114 % of control

CC(C)CC(C(=O)O)N(C)C(=O)OC(C)(C)C (configuration not stated)
inactive: [10] 101 % of control | [11] 90 % of control

CC(C)OC(=O)c1ccc(C(C)C)cc1
inactive: dose: 3.13 mg/kg/injection, vehicle: saline with Tween-80 94 % of control | [23] 96 % of control | [1] 96 % of control and 101 % of control | [3] 90 % of control

COc1cc(C2c3cc4c(cc3C(OC3CCCCO3)C3COC(=O)C23)OCO4)cc(OC)c1OC (configuration not stated)
inactive: [8] 93 % of control | [9] 98 % of control

CC1=C(C(N)=O)C(c2ccccc2)NC(=S)N1 (configuration not stated)
inactive: dose: 25.0 mg/kg/injection, vehicle: Klucel (hydroxypropylcellulose) (HPC) 106 % of control | [14] 105 % of control | [10] 100 % of control | [11] 117 % of control
